According to BigSolDB 2.1:

O=S(=O)(c1ccccc1)N(F)S(=O)(=O)c1ccccc1
Settings | solubility (mole fraction)
in 2-butanone, 273.35 K | 0.0332
in 2-butanone, 278.35 K | 0.0396
in 2-butanone, 283.35 K | 0.047
in 2-butanone, 288.35 K | 0.0546
in 2-butanone, 292.85 K | 0.0637
in 2-butanone, 297.95 K | 0.0734
in 2-butanone, 302.65 K | 0.0852
in 2-butanone, 307.35 K | 0.0978
in 2-butanone, 312.55 K | 0.111
in 2-butanone, 316.95 K | 0.128
in 2-butanone, 322.85 K | 0.146
in 2-pentanone, 273.35 K | 0.0316
in 2-pentanone, 278.35 K | 0.038
in 2-pentanone, 283.35 K | 0.0455
in 2-pentanone, 288.35 K | 0.0534
in 2-pentanone, 292.85 K | 0.0628
in 2-pentanone, 297.95 K | 0.073
in 2-pentanone, 302.65 K | 0.0853
in 2-pentanone, 307.35 K | 0.0988
in 2-pentanone, 312.55 K | 0.113
in 2-pentanone, 316.95 K | 0.131
in 2-pentanone, 322.85 K | 0.151
in acetone, 273.35 K | 0.0309
in acetone, 278.35 K | 0.0376
in acetone, 283.35 K | 0.0455
in acetone, 288.35 K | 0.0539
in acetone, 292.85 K | 0.0639
in acetone, 297.95 K | 0.0749
in acetone, 302.65 K | 0.0885
in acetone, 307.35 K | 0.104
in acetone, 312.55 K | 0.119
in acetone, 316.95 K | 0.14
in acetone, 322.85 K | 0.162
in acetonitrile, 273.35 K | 0.00951
in acetonitrile, 278.35 K | 0.0126
in acetonitrile, 283.35 K | 0.0165
in acetonitrile, 288.35 K | 0.021
in acetonitrile, 292.85 K | 0.0267
in acetonitrile, 297.95 K | 0.0334
in acetonitrile, 302.65 K | 0.0422
in acetonitrile, 307.35 K | 0.0528
in acetonitrile, 312.55 K | 0.0645
in acetonitrile, 316.95 K | 0.0804
in acetonitrile, 322.85 K | 0.0996
in ethanol, 273.35 K | 0.000599
in ethanol, 278.35 K | 0.000791
in ethanol, 283.35 K | 0.00103
in ethanol, 288.35 K | 0.00134
in ethanol, 292.85 K | 0.00168
in ethanol, 297.95 K | 0.00214
in ethanol, 302.65 K | 0.00268
in ethanol, 307.35 K | 0.00331
in ethanol, 312.55 K | 0.00417
in ethanol, 316.95 K | 0.00503
in ethanol, 322.85 K | 0.00641
in ethyl acetate, 273.35 K | 0.0243
in ethyl acetate, 278.35 K | 0.0295
in ethyl acetate, 283.35 K | 0.0353
in ethyl acetate, 288.35 K | 0.0415
in ethyl acetate, 292.85 K | 0.0489
in ethyl acetate, 297.95 K | 0.0568
in ethyl acetate, 302.65 K | 0.0668
in ethyl acetate, 307.35 K | 0.0775
in ethyl acetate, 312.55 K | 0.0885
in ethyl acetate, 316.95 K | 0.103
in ethyl acetate, 322.85 K | 0.119
in ethyl formate, 273.35 K | 0.0206
in ethyl formate, 278.35 K | 0.0254
in ethyl formate, 283.35 K | 0.0309
in ethyl formate, 288.35 K | 0.0369
in ethyl formate, 292.85 K | 0.0441
in ethyl formate, 297.95 K | 0.052
in ethyl formate, 302.65 K | 0.0619
in ethyl formate, 307.35 K | 0.0728
in ethyl formate, 312.55 K | 0.0843
in ethyl formate, 316.95 K | 0.0992
in ethyl formate, 322.85 K | 0.116
in isobutanol, 273.35 K | 0.000182
in isobutanol, 278.35 K | 0.000265
in isobutanol, 283.35 K | 0.000382
in isobutanol, 288.35 K | 0.000545
in isobutanol, 292.85 K | 0.000744
in isobutanol, 297.95 K | 0.00104
in isobutanol, 302.65 K | 0.00141
in isobutanol, 307.35 K | 0.00188
in isobutanol, 312.55 K | 0.00258
in isobutanol, 316.95 K | 0.00332
in isobutanol, 322.85 K | 0.00467
in isopentanol, 273.35 K | 0.000312
in isopentanol, 278.35 K | 0.000432
in isopentanol, 283.35 K | 0.000594
in isopentanol, 288.35 K | 0.000812
in isopentanol, 292.85 K | 0.00106
in isopentanol, 297.95 K | 0.00142
in isopentanol, 302.65 K | 0.00184
in isopentanol, 307.35 K | 0.00238
in isopentanol, 312.55 K | 0.00312
in isopentanol, 316.95 K | 0.00389
in isopentanol, 322.85 K | 0.00519
in isopropanol, 273.35 K | 0.000584
in isopropanol, 278.35 K | 0.000798
in isopropanol, 283.35 K | 0.000929
in isopropanol, 288.35 K | 0.00121
in isopropanol, 292.85 K | 0.0015
in isopropanol, 297.95 K | 0.00186
in isopropanol, 302.65 K | 0.00226
in isopropanol, 307.35 K | 0.00275
in isopropanol, 312.55 K | 0.00346
in isopropanol, 316.95 K | 0.0041
in isopropanol, 322.85 K | 0.00495
in methanol, 273.35 K | 0.000611
in methanol, 278.35 K | 0.000792
in methanol, 283.35 K | 0.00102
in methanol, 288.35 K | 0.0013
in methanol, 292.85 K | 0.0016
in methanol, 297.95 K | 0.00201
in methanol, 302.65 K | 0.00248
in methanol, 307.35 K | 0.00302
in methanol, 312.55 K | 0.00374
in methanol, 316.95 K | 0.00445
in methanol, 322.85 K | 0.0056
in methyl acetate, 273.35 K | 0.0285
in methyl acetate, 278.35 K | 0.0346
in methyl acetate, 283.35 K | 0.0417
in methyl acetate, 288.35 K | 0.0492
in methyl acetate, 292.85 K | 0.0583
in methyl acetate, 297.95 K | 0.0681
in methyl acetate, 302.65 K | 0.0803
in methyl acetate, 307.35 K | 0.0934
in methyl acetate, 312.55 K | 0.107
in methyl acetate, 316.95 K | 0.126
in methyl acetate, 322.85 K | 0.145
in n-butanol, 273.35 K | 0.00053
in n-butanol, 278.35 K | 0.000696
in n-butanol, 283.35 K | 0.000909
in n-butanol, 288.35 K | 0.00117
in n-butanol, 292.85 K | 0.00147
in n-butanol, 297.95 K | 0.00187
in n-butanol, 302.65 K | 0.00233
in n-butanol, 307.35 K | 0.00287
in n-butanol, 312.55 K | 0.0036
in n-butanol, 316.95 K | 0.00433
in n-butanol, 322.85 K | 0.00551
in n-pentanol, 273.35 K | 0.000465
in n-pentanol, 278.35 K | 0.000632
in n-pentanol, 283.35 K | 0.000843
in n-pentanol, 288.35 K | 0.00112
in n-pentanol, 292.85 K | 0.00142
in n-pentanol, 297.95 K | 0.00186
in n-pentanol, 302.65 K | 0.00236
in n-pentanol, 307.35 K | 0.00298
in n-pentanol, 312.55 K | 0.00382
in n-pentanol, 316.95 K | 0.0047
in n-pentanol, 322.85 K | 0.00613
in n-propanol, 273.35 K | 0.000452
in n-propanol, 278.35 K | 0.000616
in n-propanol, 283.35 K | 0.000832
in n-propanol, 288.35 K | 0.00111
in n-propanol, 292.85 K | 0.00142
in n-propanol, 297.95 K | 0.00187
in n-propanol, 302.65 K | 0.00239
in n-propanol, 307.35 K | 0.00304
in n-propanol, 312.55 K | 0.00392
in n-propanol, 316.95 K | 0.00485
in n-propanol, 322.85 K | 0.00633
in toluene, 273.35 K | 0.0112
in toluene, 278.35 K | 0.0145
in toluene, 283.35 K | 0.0185
in toluene, 288.35 K | 0.0228
in toluene, 292.85 K | 0.0284
in toluene, 297.95 K | 0.0346
in toluene, 302.65 K | 0.0429
in toluene, 307.35 K | 0.052
in toluene, 312.55 K | 0.0623
in toluene, 316.95 K | 0.076
in toluene, 322.85 K | 0.092
